The term IC50 denotes the concentration that inhibits the measured activity by half. The low end stands for inhibition by little substance, the high end for a need for much substance.

Six molecules from ChEMBL document CHEMBL1129121, “Design, synthesis and binding affinities of novel non-peptide mimics of somatostatin/sandostatin” (Bioorg Med Chem Lett, 1996) can be followed below.

This test concerns the target Somatostatin receptor. The test is described as follows: Compound was tested for its potency to displace 3-[125I]- - Tyr11-SRIF-14 from somatostatin receptor on membranes of rat cerebral cortex. The class given is tissue-based.
For `NCCCCCCNC[C@H]1[C@@H](OCc2ccccc2)C(OCc2ccccc2)[C@H](CO)N1CCc1c[nH]c2ccccc12` (stereo partly specified), the half-inhibitory concentration (IC50) was determined as 14 µM.

In turn, `NCCCCCCN1CC2[C@@H](OCc3ccccc3)[C@H](OCc3ccccc3)[C@H](C1)N2CCc1c[nH]c2ccccc12` displayed an IC50 of 12 µM. Molecule `NCCCCCCNC[C@@H]1CN(CCc2c[nH]c3ccccc23)C[C@@H](O)[C@@H](OCc2ccccc2)[C@@H]1OCc1ccccc1` gave an IC50 of 10 µM. Molecule `NCCCCCCN1CC2[C@@H](OCc3ccccc3)[C@H](OCc3ccccc3)C1CN2CCc1c[nH]c2ccccc12` (stereo partly specified) returned an IC50 of 15 µM. Next, `NCCCCCCN[C@H]1CN(CCc2c[nH]c3ccccc23)[C@@H](CO)C(OCc2ccccc2)[C@@H]1OCc1ccccc1` (stereo partly specified): 11 µM. Next, `NCCCCCCNC[C@H]1C(OCc2ccccc2)[C@H](OCc2ccccc2)[C@H](O)CN1CCc1c[nH]c2ccccc12` (stereo partly specified): 12 µM.
